From patent US12083115B2, “Methods for treating neurological symptoms associated with lysosomal storage diseases” (Genzyme Corporation, priority 2020, dated 2024)

Legend:
[1] = target: glucosylceramide synthase (Homo sapiens (Human), UniProt Q16739); experiment: Glucosylceramide synthase activity microsomal assay; format: biochemical; conditions: microsomes from A375 human melanoma cells; read-out: GCS IC50
Text: (§1) Inhibition of glucosylceramide synthase activity can be measured with one or more assays. A first assay is a microsomal assay that directly measures the conversion of ceramide to glucosylceramide by HPLC. Microsomes are a source of glucosylceramide synthase activity in the microsomal assay. A second assay is a cell based, phenotypic assay that monitors cell surface expression of the downstream lipid GM3 by antibody mediated immunofluorescence. Specific protocols are provided below.
An enzyme assay using microsomes as a source of glucosylceramide synthase activity. Fluorescent ceramide substrate is delivered to membrane-bound enzyme as a complex with albumin. After reaction, ceramide and glucosylceramide are separated and quantitated by reverse-phase HPLC with fluorescence detection. Enzymatic activity is assessed using a fluorescent labeled substrate and microsomes as a source of glucosylceramide synthase. C6-NBD-Ceramide is complexed with albumin for delivery to microsomes that are isolated according to the procedure described below. The final concentration of C6-NBD-Ceramide in the stock solution is 0.5 mM; the final concentration of BSA is 0.5 mM. Separation and quantitation of substrate and product (glucosylceramide) are achieved by reverse-phase HPLC with fluorescence detection.
Microsomes are isolated from A375 human melanoma cells. Eight to ten million cells are harvested by trypsinization and washed with ice cold PBS. Cells are resuspended in ice-cold lysis buffer containing protease inhibitors. Cell lysate is sonicated on ice using a probe sonicator. After sonication, the cell lysate is separated from debris by centrifugation at 10,000 g for 10 minutes at 4° C. The supernatant is removed and cleared by additional centrifugation at 100,000 g for 1 hour at 4° C. The pellet is then resuspended in the lysis buffer, aliquoted, and stored at −80° C. prior to use.
The reaction is stopped by the addition of 150 μL of 100 μM C8-ceramide in 50% aq. isopropanol; 10 μL of the final mix is analyzed on HPLC (with fluorescence detector). […] Fluorescence is detected with λex=470 nm and λem=530 nm. […] Both peaks are separated from each other and the baseline and were integrated automatically by the HPLC software. The percent conversion of substrate to product is used as the readout for inhibitor testing. […]

[2] = tested on: GM3 expression in B16 mouse melanoma cells; experiment: GM3 fluorescent-linked immunosorbent assay (FLISA), B16; format: cell-based; conditions: 48 hours
Text: as §1
(§2) This is a phenotypic assay that measures GM3 expression in B16 mouse melanoma or C32 human melanoma cells following treatment with test compounds. Cell surface GM3 expression is determined by antibody mediated fluorescence.
(§3) Compounds are diluted in media and plated in 384 well plates in DMSO. B16 and C32 cells are assayed at densities of 20,000 cells/ml and 62,500 cells/ml, respectively, per well. Each titration curve contains 10 points that are assayed in duplicate on each test run. The plates are incubated for 48 hours at 37° C., 5% CO2, and are then washed once with TBS. Anti-GM3 antibody is added to each well and the plates are then incubated for an additional one hour at room temperature. Plates are subsequently washed twice and incubated for an additional hour with the labeled secondary antibody. Following the final incubation, the plates are washed twice and the fluorescence at λex=D640/20 nm and λem=657 nm is detected on a fluorescent reader.
(§4) The results of the microsomal assays are expressed as “GCS IC50,” which represents the concentration of the compound causing 50% inhibition of glucosylceramide synthase activity. The results of the cell-based assays are expressed as “GM3 B16 IC50” or “GM3 C32 IC50” for the B16 assay and the C32 assay, respectively. These values represent the concentration of the compound causing 50% inhibition of GM3 expression on the cell surface.

[3] = tested on: GM3 expression in C32 human melanoma cells; experiment: GM3 fluorescent-linked immunosorbent assay (FLISA), C32; format: cell-based; conditions: 48 hours
Text: as §1, §2, §3, §4

[4] = tested on: neurological manifestations of GD-3; conditions: cited from earlier work

Chain of glucosylceramide synthase (Q16739 whole entry): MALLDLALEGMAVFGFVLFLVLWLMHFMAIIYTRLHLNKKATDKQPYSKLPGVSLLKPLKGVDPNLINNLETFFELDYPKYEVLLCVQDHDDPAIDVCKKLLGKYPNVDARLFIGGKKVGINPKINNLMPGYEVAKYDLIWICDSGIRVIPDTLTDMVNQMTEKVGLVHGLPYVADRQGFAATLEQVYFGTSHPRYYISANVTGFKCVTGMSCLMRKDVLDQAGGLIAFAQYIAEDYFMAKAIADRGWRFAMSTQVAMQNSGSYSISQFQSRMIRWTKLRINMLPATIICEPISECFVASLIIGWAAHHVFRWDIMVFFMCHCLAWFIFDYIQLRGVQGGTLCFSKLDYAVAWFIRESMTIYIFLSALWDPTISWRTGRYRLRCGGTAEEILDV

| Compound | IC50 [1] [µM] | IC50 [2] [µM] | IC50 [3] [µM] | treatment of the neurological manifestations of GD-3 ([4]; clinical trials) | crossing of the blood-brain barrier ([4]; human, in vivo) |
| --- | --- | --- | --- | --- | --- |
| CC(C)(NC(=O)OC1CN2CCC1CC2)c1cccc(-c2ccc(F)cc2)c1 (centres unmarked) [Compound 1, Quinuclidin-3-yl (2-(4′-fluoro-[1,1′-biphenyl]-3-yl)propan-2-yl)carbamate] | 1.9 | 15.6 | 2.1 | – | – |
| COCCOc1ccc(-c2ccc(C(C)(C)NC(=O)O[C@@H]3CN4CCC3CC4)cc2)cc1 [Compound 3, (S)-quinuclidin-3-yl (2-(4′-(2-methoxyethoxy)-[1,1′-biphenyl]-4-yl)propan-2-yl)carbamate] | 4.14 | 43.7 | 1.31 | – | – |
| CC(C)(NC(=O)OC1CN2CCC1CC2)c1cccc(-c2ccccc2)c1 (centres unmarked) [Compound 4, 1-azabicyclo[2.2.2]oct-3-yl [2-(biphenyl-3-yl)propan-2-yl]carbamate] | 1.5 | 11.6 | 0.8 | – | – |
| CC(C)(NC(=O)O[C@@H]1CN2CCC1CC2)c1ccc(-c2ccccc2)cc1 [Compound 5, (S)-quinuclidin-3-yl 2-(biphenyl-4-yl)propan-2-ylcarbamate] | 1.2 | 19.3 | 0.3 | – | – |
| O=C(NC1(c2ccc(-c3ccccc3)cc2)CC1)OC1CN2CCC1CC2 (centres unmarked) [Compound 6, Quinuclidin-3-yl 1-(biphenyl-4-yl)cyclopropylcarbamate] | 2.8 | 18.1 | 0.6 | – | – |
| O=C(NC1(c2ccc(-c3ccc(F)cc3)cc2)CC1)O[C@@H]1CN2CCC1CC2 [Compound 7, (S)-quinuclidin-3-yl 1-(4′-fluorobiphenyl-4-yl)cyclopropylcarbamate] | 1.4 | 8.1 | 0.4 | – | – |
| O=C(NC1(c2ccc(-c3ccc(F)cc3F)cc2)CC1)O[C@@H]1CN2CCC1CC2 [Compound 8, (S)-1-azabicyclo[2.2.2]oct-3-yl [1-(2′,4′-difluorobiphenyl-4-yl)cyclopropyl]carbamate] | 1 | 7.5 | 0.4 | – | – |
| COc1ccc(-c2ccc(C3(NC(=O)OC4CN5CCC4CC5)CC3)cc2)cc1 (centres unmarked) [Compound 9, 1-azabicyclo[2.2.2]oct-3-yl [1-(4′-methoxybiphenyl-4-yl)cyclopropyl]carbamate] | 1.4 | 16.8 | 0.4 | – | – |
| CC(C)(NC(=O)OC1CN2CCC1CC2)c1csc(-c2ccc(F)cc2)c1 (centres unmarked) [Compound 10, Quinuclidin-3-yl 2-(5-(4-fluorophenyl)thiophen-3-yl)propan-2-ylcarbamate] | 6.4 | 21.3 | 2.2 | – | – |
| CC(C)(NC(=O)O[C@@H]1CN2CCC1CC2)c1cc(-c2ccc(F)cc2)ns1 [Compound 11, (S)-quinuclidin-3-yl 2-(3-(4-fluorophenyl)isothiazol-5-yl)propan-2-ylcarbamate] | 14.9 | 81.9 | 1.8 | – | – |
| CC(C)(NC(=O)O[C@@H]1CN2CCC1CC2)c1nc(-c2ccc(F)cc2)cs1 [Compound 12, (S)-quinuclidin-3-yl 2-(4-(4-fluorophenyl)thiazol-2-yl)propan-2-ylcarbamate] | 20.3 | 87.8 | 3.7 | – | – |
| COCCOc1ccc(-c2ccc(C(C)(C)NC(=O)OC3CN4CCC3CC4)cc2)cc1 (centres unmarked) [Compound 13, Quinuclidin-3-yl (2-(4′-(2-methoxyethoxy)-[1,1′-biphenyl]-4-yl)propan-2-yl)carbamate] | 3.5 | 38.6 | 0.7 | – | – |
| COCCOc1cccc(-c2ccc(C(C)(C)NC(=O)O[C@@H]3CN4CCC3CC4)cc2)c1 [Compound 14, (S)-quinuclidin-3-yl (2-(3′-(2-methoxyethoxy)-[1,1′-biphenyl]-4-yl)propan-2-yl)carbamate] | 10.4 | 110 | 5.3 | – | – |
| COCCOc1ccc(-c2cccc(C(C)(C)NC(=O)OC3CN4CCC3CC4)c2)cc1 (centres unmarked) [Compound 15, Quinuclidin-3-yl (2-(4′-(2-methoxyethoxy)-[1,1′-biphenyl]-3-yl)propan-2-yl)carbamate] | 26.7 | 29.5 | 4.9 | – | – |
| COCCCOc1ccc(-c2ccc(C(C)(C)NC(=O)OC3CN4CCC3CC4)cc2)cc1 (centres unmarked) [Compound 16, Quinuclidin-3-yl (2-(4′-(3-methoxypropoxy)-[1,1′-biphenyl]-4-yl)propan-2-yl)carbamate] | 2.4 | 66.6 | 1.6 | – | – |
| CC(C)(NC(=O)OC1CN2CCC1CC2)c1ccc(-c2ccc(CO)cc2)cc1 (centres unmarked) [Compound 17, Quinuclidin-3-yl (2-(4′-(hydroxymethyl)-[1,1′-biphenyl]-4-yl)propan-2-yl)carbamate] | 454 | 879 | 21.6 | – | – |
| CC(C)(NC(=O)OC1CN2CCC1CC2)c1ccc(-c2ccc(CCO)cc2)cc1 (centres unmarked) [Compound 18, Quinuclidin-3-yl (2-(4′-(2-hydroxyethyl)-[1,1′-biphenyl]-4-yl)propan-2-yl)carbamate] | 148 | 656 | 22.3 | – | – |
| COCCCOc1ccc(-c2nc(C(C)(C)NC(=O)OC3CN4CCC3CC4)cs2)cc1 (centres unmarked) [Compound 19, Quinuclidin-3-yl (2-(2-(4-(3-methoxypropoxy)phenyl)thiazol-4-yl)propan-2-yl)carbamate] | 170 | 197 | 42.6 | – | – |
| COCCOc1ccc(-c2nc(C(C)(C)NC(=O)OC3CN4CCC3CC4)cs2)cc1 (centres unmarked) [Compound 20, Quinuclidin-3-yl (2-(2-(4-(2-methoxyethoxy)phenyl)thiazol-4-yl)propan-2-yl)carbamate] | 360 | 106 | 19.8 | – | – |
| COCCOc1ccc(-c2ccc(C(C)(C)NC(=O)OC3CN4CCC3CC4)nc2)cc1 (centres unmarked) [Compound 21, Quinuclidin-3-yl 2-(5-(4-(2-methoxyethoxy)phenyl)pyridin-2-yl)propan-2-ylcarbamate] | 50.6 | 266 | 11.1 | – | – |
| CC(C)(NC(=O)OC1CN2CCC1CC2)c1ccc(-c2ccc(OCCCC#N)cc2)cc1 (centres unmarked) [Compound 22, Quinuclidin-3-yl (2-(4′-(3-cyanopropoxy)-[1,1′-biphenyl]-4-yl)propan-2-yl)carbamate] | 9.6 | 86.5 | 3.2 | – | – |
| CC(C)(NC(=O)OC1CN2CCC1CC2)c1ccc(-c2ccc(OCC#N)cc2)cc1 (centres unmarked) [Compound 23, Quinuclidin-3-yl (2-(4′-(cyanomethoxy)-[1,1′-biphenyl]-4-yl)propan-2-yl)carbamate] | 2.6 | 47.7 | 0.8 | – | – |
| CCCCN1C[C@H](O)[C@@H](O)[C@H](O)[C@H]1CO [miglustat] | – | – | – | ineffective | does cross the blood-brain barrier |
